According to patent US4592997A, “Process for the detection of the presence of an allergy and for the specific detection of the allergen responsible for the allergy” (Boehringer Mannheim GmbH, priority 1982, dated 1986):
Peptide text beside a SMILES is read from it. * marks the point of attachment. pNA = O=[N+]([O-])c1ccc(N*)cc1; Tos = Cc1ccc(S(=O)(=O)*)cc1; Cbz = O=C(OCc1ccccc1)*

Legend:
[1] = test system: protease liberated from leukocytes after anti-IgE stimulation; assay: Splitting of chromogenic substrates by the protease liberated from leukocytes; assay type: biochemical, human
Procedure: (§1) Two 0.9 ml. amounts of cell suspension were each transferred to a polyethylene test tube, mixed with 0.4 ml. tris buffer mixture (pH 7.6) and brought to 37° C. in a water-bath. To one sample, there was added 0.1 ml. of anti-IgE solution (Behring-Werke, No. OTNP 04/05, diluted 1:500 with tris buffer mixture; pH 7.6) and to the other sample (the control) there was pipetted 0.1 ml. of tris buffer mixture (pH 7.6) and to both samples there was added 0.1 ml. calcium chloride solution (4 mmol/liter in isotonic sodium chloride solution; pH 7.6). The two samples were kept for 60 minutes at 37° C., then each was mixed with 0.5 ml. ice-cold EDTA solution (0.1 mol/liter in isotonic sodium chloride solution; pH 7.6) and centrifuged for 10 minutes at 4° C., and at 30000 g, the supernatant being pipetted off immediately after stopping the centrifuge.
To 0.5 ml of the supernatant was added 0.5 ml. of 1.5 mmol/l. Chromozym TH solution (1 bottle BM 199664 dissolved in 5 ml. water). The extinction difference between the two samples was determined after 1, 2 and 3 hours at 405 nm.
From two 0.9 ml. amounts of leukocyte suspension obtained according to Example 1.1 from the blood of a healthy donor, there was obtained protease according to Example 1.2, after anti-IgE stimulation, as centrifuge supernatant. The testing of the protease took place as in Example 1.3 but in the case of one sample, instead of Chromozym TH, there was added an equimolar amount of CBO-Gly-Pro-Arg-pNA. Within the first 3 hours equal ΔE/h values (ΔE/h=0.067) were measured.
The activity of two samples treated in parallel according to Example 1 was determined with Chromozym TH and with an equimolar amount of Chromozym PL. With Chromozym PL, there was found ΔE/h=0.052 and with Chromozym TH ΔE/h=0.048.
The protease activity of two samples treated in parallel according to Example 1 was determined with Chromozym TH and with an equimolar amount of S 2238. With S 2238 there was determined ΔE/h=0.037 and with Chromozym TH ΔE/h=0.048.

leukocytes = assay: Protease liberation from leukocytes by anti-IgE or allergen, measured with Chromozym TH (Example 1 method); assay type: cell-based, human; conditions: for allergy towards the substance shown with the process (in words): general statement
Procedure: 60 ml. venous blood of a healthy donor were carefully mixed with 30 ml. of a dextran mixture (dextran with average M.W. of 75000 2%; D-glucose 2%, EDTA 20 mmol/liter; gelatine 0.07%) in a polyethylene beaker and transferred to a siliconised separating funnel. After leaving to stand for 60 to 90 minutes at room temperature, the supernatant containing the leukocytes (about 50 ml.) was separated off and mixed with 50 ml. tris buffer mixture of pH 7.6 (tris 22 mmol/liter; sodium chloride 0.12 mol/liter; potassium chloride 5 mmol/liter; gelatine 0.05%; EDTA 1 mmol/liter; D-glucose 0.1%) and centrifuged for 15 minutes at 800 g. After decanting, the cells were washed twice in that, in each case, they were again suspended in 50 ml. of the same buffer mixture (pH 7.6) and, in each case, centrifuged for 15 minutes at 800 g. The cells were then suspended in 10 ml. of the same buffer mixture.
as §1
To 0.5 ml of the supernatant was added 0.5 ml. of 1.5 mmol/l. […] The extinction difference between the two samples was determined after 1, 2 and 3 hours at 405 nm.

[2] = test system: kallikrein-like protease from leukocytes; conditions: cited from earlier work
[3] = test system: new protease from leukocytes; assay: Specific inhibitability of the new protease from leukocytes; assay type: biochemical, human; conditions: new leukocyte protease
[4] = Example 3, healthy donor, after anti-IgE stimulation, first 3 hours, equimolar substrate
[5] = Example 4, samples treated according to Example 1, equimolar substrate
[6] = Example 5, samples treated according to Example 1, equimolar substrate

N=C(N)NCCC[C@H](NC(=O)[C@@H]1CCCN1C(=O)CNC(=O)OCc1ccccc1)C(=O)Nc1ccc([N+](=O)[O-])cc1 [CBO-Gly-Pro-Arg-pNA, reference compound] (Cbz-Gly-Pro-Arg-pNA)
ΔE/h with the substrate [1, 4]: 0.067 h⁻¹

CC(=O)O.Cc1ccc(S(=O)(=O)NCC(=O)N2CCC[C@H]2C(=O)N[C@@H](CCCNC(=N)N)C(=O)Nc2ccc([N+](=O)[O-])cc2)cc1 [Chromozym TH, tosyl-glycyl-prolyl-arginine-p-nitroanilide acetate] (Tos-Gly-Pro-Arg-pNA)
ΔE/h with the substrate [1, 4]: 0.067 h⁻¹
ΔE/h with the substrate [1, 5]: 0.048 h⁻¹
ΔE/h with the substrate [1, 6]: 0.048 h⁻¹

NC(N)=NCCC[C@H](NC(=O)[C@@H]1CCCCN1C(=O)[C@H](N)Cc1ccccc1)C(=O)Nc1ccc([N+](=O)[O-])cc1 [S 2238, Phe-Pip-Arg-pNA]
ΔE/h with the substrate [1, 6]: 0.037 h⁻¹

CC1(C)S[C@@H]2[C@H](NC(=O)[C@H](N)c3ccccc3)C(=O)N2[C@H]1C(=O)O [ampicillin]
additional extinction change ΔE/h versus unstimulated comparative sample (leukocytes; donor allergic to ampicillin): 0.558 h⁻¹
measurement value ΔE/h of the stimulated sample (leukocytes; donor allergic to ampicillin, 0.9 ml. leukocyte suspension): 0.893 h⁻¹
allergy towards the substance shown with the process (in words) (leukocytes): demonstrated

aprotinin [reference compound]
specific inhibitability by aprotinin I50 ([2]; known kallikrein-like protease): about 50 μg./ml.
specific inhibitability by aprotonin I50 [3]: 1 mg/mL

nickel
allergy towards the substance shown with the process (in words) (leukocytes): demonstrated

Cc1ccc(S(=O)(=O)NCC(=O)N2CCC[C@H]2C(=O)N[C@@H](CCCCN)C(=O)Nc2ccc([N+](=O)[O-])cc2)cc1 [Chromozym PL, Tos-Gly-Pro-Lys-pNA] (Tos-Gly-Pro-Lys-pNA)
ΔE/h with the substrate [1, 5]: 0.052 h⁻¹

B1: soya bean trypsin inhibitor (protein, UniProt P01070 25-205, looked up)
Trypsin inhibitor A: DFVLDNEGNPLENGGTYYILSDITAFGGIRAAPTGNERCPLTVVQSRNELDKGIGTIISSPYRIRFIAEGHPLSLKFDSFAVIMLCVGIPTEWSVVEDLPEGPAVKIGENKDAMDGWFRLERVSDDEFNNYKLVFCPQQAEDDKCGDIGISIDHDDGTRRLVVSKNKPLVVQFQKLDKESL
inhibition by STI ([2]; 0.1 mole/l. STI): 11%
